pIC50: −log10 of the molar value.
How the values were obtained:
[1] = target: Spike glycoprotein/Angiotensin-converting enzyme 2 (Severe acute respiratory syndrome coronavirus 2, UniProt P0DTC2+Q9BYF1); experiment: Inhibition of SARS-CoV-2 spike glycoprotein/ His tagged human ACE2 interaction incubated for 1 hr followed by substrate addition and measured after 15 mins by ELISA; assay type: protein assay
[2] = target: Spike glycoprotein/Angiotensin-converting enzyme 2 (Severe acute respiratory syndrome coronavirus 2) (UniProt Q9BYF1+P0DTC2); experiment: Inhibition of SARS-CoV-2 spike glycoprotein/ His tagged human ACE2 interaction at 100 uM incubated for 1 hr followed by substrate addition and measured after 15 mins by ELISA relative to control; assay type: protein assay

Spike glycoprotein/Angiotensin-converting enzyme 2, sequence (Q9BYF1 18-805 limits assumed, other chains not shown): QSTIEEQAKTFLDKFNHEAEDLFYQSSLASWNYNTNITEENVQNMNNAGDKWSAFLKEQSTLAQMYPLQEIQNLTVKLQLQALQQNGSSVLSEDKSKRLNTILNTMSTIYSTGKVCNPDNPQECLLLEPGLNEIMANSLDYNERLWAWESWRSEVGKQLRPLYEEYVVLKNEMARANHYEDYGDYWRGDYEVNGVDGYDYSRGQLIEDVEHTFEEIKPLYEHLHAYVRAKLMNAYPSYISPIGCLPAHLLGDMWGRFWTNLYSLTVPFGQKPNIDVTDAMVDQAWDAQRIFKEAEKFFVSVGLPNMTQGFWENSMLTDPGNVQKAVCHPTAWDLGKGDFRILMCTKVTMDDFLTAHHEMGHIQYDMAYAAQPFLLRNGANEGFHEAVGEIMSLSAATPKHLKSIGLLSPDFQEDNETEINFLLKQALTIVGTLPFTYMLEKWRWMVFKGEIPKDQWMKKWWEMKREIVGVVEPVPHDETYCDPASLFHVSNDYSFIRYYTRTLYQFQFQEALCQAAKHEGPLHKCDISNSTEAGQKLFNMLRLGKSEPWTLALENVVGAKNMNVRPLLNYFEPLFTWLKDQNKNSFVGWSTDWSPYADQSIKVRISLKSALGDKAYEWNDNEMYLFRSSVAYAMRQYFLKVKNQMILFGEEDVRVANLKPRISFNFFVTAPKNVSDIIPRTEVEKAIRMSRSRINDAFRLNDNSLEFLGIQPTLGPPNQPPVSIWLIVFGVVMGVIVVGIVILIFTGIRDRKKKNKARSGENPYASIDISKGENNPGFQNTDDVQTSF

In the case of `C[C@@H](CO)c1ccc(CO)c2ccc(C(=O)O)cc12`, the pIC50 [1] was 4.03 and the inhibition [2] was over 50%.

For `CC(C)c1ccc(C(=O)O)c2ccc(C(=O)O)cc12`, the pIC50 [1] was 4.02 and the inhibition [2] was over 50%.

With `C[C@@H](CO)c1ccc(C(=O)O)c2ccc(C(=O)O)cc12` the pIC50 [1] was 4.12 and the inhibition [2] was over 50%.

Work on `CC(C)c1ccc(CO)c2ccc(C(=O)O)cc12` yielded a pIC50 [1] of 4.00 and an inhibition [2] of over 50%.

`CC(C)(O)c1ccc(CO)c2ccc(C(=O)O)cc12` was tested, and the pIC50 [1] was 4.19 and the inhibition [2] was over 50%.

Source: ChEMBL document CHEMBL4840319, “Aromatic Cadinane Sesquiterpenoids from the Fruiting Bodies of Phellinus pini Block SARS-CoV-2 Spike-ACE2 Interaction” (J Nat Prod, 2021)
